Results reported in US5254543A, “Sulphonylbenzyl-substituted pyridones which are angiotension II receptor antagonists” (Bayer Aktiengesellschaft, priority 1992, dated 1993).

Tested on: angiotensin II-induced contraction of isolated rabbit aorta rings
Test: Inhibition of agonist-induced contraction, angiotensin II: inhibition of vascular contraction in isolated rabbit aorta rings in vitro
Settings: based on the 3rd = submaximal agonist concentration, read-out: IC50 against contractions induced by AII
Description: Rabbits of both sexes are stunned by a blow to the neck and bled out, or in some cases anesthetised with Nembutal (about 60-80 mg/kg i.v.) and sacrificed by opening the thorax. The thorax aorta is taken out, freed from adhering connective tissue, divided into 1.5 mm wide ring segments and individually transferred under an initial loading of about 3.5 g to 10 ml organ baths containing 95% O2 /5% CO2 -aerated Krebs-Henseleit nutrient solution temperature-controlled at 37° C. of the following composition: 119 mmol/l of NaCl; 2.5 mmol/l of CaCl2 ×2 H2 O; 1.2 mmol/l of KH2 PO4; 10 mmol/l of glucose; 4.8 mmol/l of KCl; 1.4 mmol/l of MgSO4 ×7 H2 O and 25 mmol/l of NaHCO3.
The contractions are measured isometrically by Statham UC2 cells by means of bridge amplifiers (ifd Mulheim or DSM Aalen) and digitalised and analysed by means of A/D convertors (System 570, Keithley Munich). Agonist dose response curves (DRC) were plotted hourly. With each DRC, 3 or 4 individual concentrations are applied to the baths at an interval of 4 min. […]
The height of the 3rd DRC in the normal case is used as a reference quantity for the evaluation of the test substance to be investigated in further passages, which is applied to the baths in the following DRCs in increasing dosage in each case at the start of the incubation time. […]

Question: Which IC50 does the source give for CCCCc1cc(C(=O)O)cc(=O)n1Cc1ccc(S(=O)(=O)N2CCCC2C(=O)O)cc1Cl (stereo not shown) [Example 6] here?
Answer: Its IC50 is 280 nM.
